In PubChem BioAssay AID1963826 (Molecular Pharmacology Branch, DTP, NCI, 2024):

Test system: 926638-142-R-J1-PDC complex spheroid viability
Assay: Anticancer human tumor 926638-142-R-J1-PDC patient-derived endometrial carcinoma cell line growth inhibition [POLQ]
Settings: for IC50: curve of first compound; for viability, T/C: stronger effect = lower value
Method in brief: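 Patient-derived tumour cells were co-cultured with HUVEC and mesenchymal stem cells as multicellular spheroids at 37 °C. They were treated with POLQ inhibitors (novobiocin, ART-558, RP6685) alone or combined with other agents. Top concentrations were at or near clinical Cmax (otherwise 10 microM; SN-38 at 1 microM), decreasing in half-log steps.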

[1] = second compound 0.0316 µM, first compound 0.0316 µM
[2] = second compound 0.0316 µM, first compound 0.1 µM
[3] = second compound 0.0316 µM, first compound 0.316 µM
[4] = second compound 0.0316 µM, first compound 1 µM
[5] = second compound 0.0316 µM, first compound 3.16 µM
[6] = second compound 0.0316 µM, first compound 10 µM
[7] = second compound 0.1 µM, first compound 0.0316 µM
[8] = second compound 0.1 µM, first compound 0.1 µM
[9] = second compound 0.1 µM, first compound 0.316 µM
[10] = second compound 0.1 µM, first compound 1 µM
[11] = second compound 0.1 µM, first compound 3.16 µM
[12] = second compound 0.1 µM, first compound 10 µM
[13] = second compound 0.316 µM, first compound 0.0316 µM
[14] = second compound 0.316 µM, first compound 0.1 µM
[15] = second compound 0.316 µM, first compound 0.316 µM
[16] = second compound 0.316 µM, first compound 1 µM
[17] = second compound 0.316 µM, first compound 3.16 µM
[18] = second compound 0.316 µM, first compound 10 µM
[19] = second compound 1 µM, first compound 0.0316 µM
[20] = second compound 1 µM, first compound 0.1 µM
[21] = second compound 1 µM, first compound 0.316 µM
[22] = second compound 1 µM, first compound 1 µM
[23] = second compound 1 µM, first compound 3.16 µM
[24] = second compound 1 µM, first compound 10 µM
[25] = second compound 3.16 µM, first compound 0.0316 µM
[26] = second compound 3.16 µM, first compound 0.1 µM
[27] = second compound 3.16 µM, first compound 0.316 µM
[28] = second compound 3.16 µM, first compound 1 µM
[29] = second compound 3.16 µM, first compound 3.16 µM
[30] = second compound 3.16 µM, first compound 10 µM
[31] = second compound 10 µM, first compound 0.0316 µM
[32] = second compound 10 µM, first compound 0.1 µM
[33] = second compound 10 µM, first compound 0.316 µM
[34] = second compound 10 µM, first compound 1 µM
[35] = second compound 10 µM, first compound 3.16 µM
[36] = second compound 10 µM, first compound 10 µM
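Further: spheroids exposed to drugs for one week before readout.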
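Wherever viability, T/C is given: percent viability relative to DMSO vehicle control wells set as 100%.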

## C#Cc1c(F)ccc2cc(O)cc(-c3ncc4c(N5CC6CCC(C5)N6)nc(OCC56CCCN5CC(F)C6)nc4c3F)c12 (stereo unspecified) + COC1C(OC(N)=O)C(O)C(Oc2ccc3c(O)c(NC(=O)c4ccc(O)c(CC=C(C)C)c4)c(=O)oc3c2C)OC1(C)C
Second compound 0.0316 µM
  IC50: > 10000 nM
Second compound 0.1 µM
  IC50: > 10000 nM
Second compound 0.316 µM
  IC50: > 10000 nM
Second compound 1 µM
  IC50: > 10000 nM
Second compound 3.16 µM
  IC50: > 10000 nM
Second compound 10 µM
  IC50: > 10000 nM
[1]
  viability, T/C: 99.4%
[2]
  viability, T/C: 84.1%
[3]
  viability, T/C: 89%
[4]
  viability, T/C: 84.2%
[5]
  viability, T/C: 60.1%
[6]
  viability, T/C: 54.6%
[7]
  viability, T/C: 90.2%
[8]
  viability, T/C: 86.6%
[9]
  viability, T/C: 81.3%
[10]
  viability, T/C: 72.9%
[11]
  viability, T/C: 66.4%
[12]
  viability, T/C: 51.9%
[13]
  viability, T/C: 97.1%
[14]
  viability, T/C: 73.7%
[15]
  viability, T/C: 89.4%
[16]
  viability, T/C: 64.9%
[17]
  viability, T/C: 59.4%
[18]
  viability, T/C: 65.9%
[19]
  viability, T/C: 84.8%
[20]
  viability, T/C: 81.7%
[21]
  viability, T/C: 80.9%
[22]
  viability, T/C: 71.9%
[23]
  viability, T/C: 72.2%
[24]
  viability, T/C: 61.9%
[25]
  viability, T/C: 78.9%
[26]
  viability, T/C: 84.2%
[27]
  viability, T/C: 77.9%
[28]
  viability, T/C: 72.2%
[29]
  viability, T/C: 64.4%
[30]
  viability, T/C: 52.5%
[31]
  viability, T/C: 85.2%
[32]
  viability, T/C: 73.5%
[33]
  viability, T/C: 91.3%
[34]
  viability, T/C: 67.4%
[35]
  viability, T/C: 68.4%
[36]
  viability, T/C: 62.9%

## COc1cccc2c1C(=O)c1c(O)c3c(c(O)c1C2=O)CC(O)(C(=O)CO)CC3OC1CC(N)C(O)C(C)O1 (stereo unspecified) + Nc1ccc(C#CCN(C(=O)Cc2ncc(C(F)(F)F)cc2C(F)(F)F)c2ccc(F)cc2)nn1
Second compound 0.0316 µM
  IC50: 167 nM
Second compound 0.1 µM
  IC50: 140 nM
Second compound 0.316 µM
  IC50: 137 nM
Second compound 1 µM
  IC50: 150 nM
Second compound 3.16 µM
  IC50: 118 nM
Second compound 10 µM
  IC50: 127 nM
[1]
  viability, T/C: 86.7%
[2]
  viability, T/C: 69.4%
[3]
  viability, T/C: 25.7%
[4]
  viability, T/C: 8.06%
[5]
  viability, T/C: 0.22%
[6]
  viability, T/C: 0.4%
[7]
  viability, T/C: 90.7%
[8]
  viability, T/C: 59.6%
[9]
  viability, T/C: 26.1%
[10]
  viability, T/C: 6.81%
[11]
  viability, T/C: 0.22%
[12]
  viability, T/C: 0.36%
[13]
  viability, T/C: 78.7%
[14]
  viability, T/C: 58.9%
[15]
  viability, T/C: 26.5%
[16]
  viability, T/C: 7.2%
[17]
  viability, T/C: 0.19%
[18]
  viability, T/C: 0.51%
[19]
  viability, T/C: 89%
[20]
  viability, T/C: 62.4%
[21]
  viability, T/C: 27.4%
[22]
  viability, T/C: 7.01%
[23]
  viability, T/C: 0.23%
[24]
  viability, T/C: 0.29%
[25]
  viability, T/C: 80.6%
[26]
  viability, T/C: 54.4%
[27]
  viability, T/C: 23.2%
[28]
  viability, T/C: 7.1%
[29]
  viability, T/C: 0.27%
[30]
  viability, T/C: 0.31%
[31]
  viability, T/C: 74%
[32]
  viability, T/C: 57.6%
[33]
  viability, T/C: 20.7%
[34]
  viability, T/C: 3.99%
[35]
  viability, T/C: 0.31%
[36]
  viability, T/C: 0.43%

## CCc1cc2c(N3CCc4c(cc(Cn5ccnc5)cc4-c4cn(C)nc4C(F)(F)F)C3=O)cc(C)nc2c(OC)n1 + Cc1cccc(N(C)C(=O)C2C(O)CCN2c2nc(C)cc(C(F)(F)F)c2C#N)c1
Second compound 0.0316 µM
  IC50: 397 nM
Second compound 0.1 µM
  IC50: 658 nM
Second compound 0.316 µM
  IC50: 700 nM
Second compound 1 µM
  IC50: 554 nM
Second compound 3.16 µM
  IC50: 467 nM
Second compound 10 µM
  IC50: 257 nM
[1]
  viability, T/C: 77.9%
[2]
  viability, T/C: 72%
[3]
  viability, T/C: 45.9%
[4]
  viability, T/C: 44.4%
[5]
  viability, T/C: 31.8%
[6]
  viability, T/C: 26.9%
[7]
  viability, T/C: 90.2%
[8]
  viability, T/C: 71%
[9]
  viability, T/C: 59.3%
[10]
  viability, T/C: 44%
[11]
  viability, T/C: 38.1%
[12]
  viability, T/C: 31.4%
[13]
  viability, T/C: 94.8%
[14]
  viability, T/C: 65.3%
[15]
  viability, T/C: 56.3%
[16]
  viability, T/C: 48.4%
[17]
  viability, T/C: 43.2%
[18]
  viability, T/C: 22.5%
[19]
  viability, T/C: 69%
[20]
  viability, T/C: 80.6%
[21]
  viability, T/C: 58.1%
[22]
  viability, T/C: 39.8%
[23]
  viability, T/C: 34.2%
[24]
  viability, T/C: 26.6%
[25]
  viability, T/C: 91.9%
[26]
  viability, T/C: 66.2%
[27]
  viability, T/C: 56.4%
[28]
  viability, T/C: 38%
[29]
  viability, T/C: 44%
[30]
  viability, T/C: 27.1%
[31]
  viability, T/C: 66.5%
[32]
  viability, T/C: 64.7%
[33]
  viability, T/C: 45.1%
[34]
  viability, T/C: 37.1%
[35]
  viability, T/C: 36%
[36]
  viability, T/C: 26.8%
